The test system of assay [1] is MCF7. The assay is described as follows: Cytotoxicity against human MCF7 cells after 24 hrs using Annexin VeFITC/propidium iodide staining by MTT assay. Conditions: MCF7, 24 h. It is filed as functional, cell-based.
Assay [2] is described as follows: Inhibition of bovine brain FAK after 20 mins by turbidimetry. The arrangement: species or system Bos taurus.
The subject of assay [3] is A-431. The assay is described as follows: Cytotoxicity against human A431 cells after 24 hrs […] by MTT assay. The format is functional, cell-based. The following applies: A-431, 24 h. On the technique in general: Tetrazolium dyes change colour on reduction, which living cells bring about.
Assay [4] deals with A-431. The assay is described as follows: Induction of apoptosis in human A431 cells assessed as early apoptotic cells at 20 nM after 24 hrs using Annexin VeFITC/propidium iodide staining by flow cytometry. The format is functional.
Assay [5] concerns A-431. The assay is described as follows: Induction of apoptosis in human A431 cells assessed as early apoptotic cells at 5 nM after 24 hrs using Annexin VeFITC/propidium iodide staining by flow cytometry. The format is functional. For orientation: Flow cytometry measures light scatter and fluorescence of single cells or particles in a stream.
The test system of assay [6] is A-431. The assay is described as follows: Induction of apoptosis in human A431 cells after 24 hrs using Annexin VeFITC/propidium iodide staining by flow cytometry. It is filed as functional, cell-based.
The subject of assay [7] is A-431. The assay can be described thus: Induction of apoptosis in human A431 cells assessed as necrotic cells at 20 nM after 24 hrs using Annexin VeFITC/propidium iodide staining by flow cytometry. The format is functional.
Assay [8] relates to A-431. The assay can be described thus: Induction of apoptosis in human A431 cells assessed as viable cells at 20 nM after 24 hrs using Annexin VeFITC/propidium iodide staining by flow cytometry. The format is functional. Conditions: A-431, 24 h, read-out: Activity.
The subject of assay [9] is A-431. The assay can be described thus: Induction of apoptosis in human A431 cells assessed as late apoptotic cells at 5 nM after 24 hrs using Annexin VeFITC/propidium iodide staining by flow cytometry. It is filed as functional.
Assay [10] concerns A-431. The assay can be described thus: Induction of apoptosis in human A431 cells assessed as viable cells at 5 nM after 24 hrs using Annexin VeFITC/propidium iodide staining by flow cytometry. It is filed as functional. The following applies: A-431, 24 h, read-out: Activity.
Assay [11] has as its system A-431. The assay is described as follows: Induction of apoptosis in human A431 cells assessed as early apoptotic cells at 10 nM after 24 hrs using Annexin VeFITC/propidium iodide staining by flow cytometry. It is filed as functional.
Assay [12] deals with A-431. The assay is described as follows: Induction of apoptosis in human A431 cells assessed as necrotic cells at 5 nM after 24 hrs using Annexin VeFITC/propidium iodide staining by flow cytometry. It is filed as functional.
For assay [13], the system named is A-431. The assay can be described thus: Induction of apoptosis in human A431 cells assessed as early apoptotic cells at 40 nM after 24 hrs using Annexin VeFITC/propidium iodide staining by flow cytometry. It is filed as functional.
The subject of assay [14] is A-431. The assay can be described thus: Induction of apoptosis in human A431 cells assessed as necrotic cells at 10 nM after 24 hrs using Annexin VeFITC/propidium iodide staining by flow cytometry. The format is functional.
For assay [15], the system named is A-431. The assay can be described thus: Induction of apoptosis in human A431 cells assessed as viable cells at 40 nM after 24 hrs using Annexin VeFITC/propidium iodide staining by flow cytometry. The format is functional. The following applies: A-431, 24 h, read-out: Activity.
Assay [16] deals with A-431. The assay can be described thus: Induction of apoptosis in human A431 cells assessed as viable cells at 10 nM after 24 hrs using Annexin VeFITC/propidium iodide staining by flow cytometry. It is filed as functional. The following applies: A-431, 24 h, read-out: Activity.
For assay [17], the system named is A-431. The assay is described as follows: Induction of apoptosis in human A431 cells assessed as late apoptotic cells at 20 nM after 24 hrs using Annexin VeFITC/propidium iodide staining by flow cytometry. The format is functional.
For assay [18], the system named is A-431. The assay can be described thus: Induction of apoptosis in human A431 cells assessed as necrotic cells at 40 nM after 24 hrs using Annexin VeFITC/propidium iodide staining by flow cytometry. The format is functional.
The test system of assay [19] is A-431. The assay is described as follows: Induction of apoptosis in human A431 cells assessed as late apoptotic cells at 40 nM after 24 hrs using Annexin VeFITC/propidium iodide staining by flow cytometry. The format is functional.
Assay [20] has as its system A-431. The assay can be described thus: Induction of apoptosis in human A431 cells assessed as late apoptotic cells at 10 nM after 24 hrs using Annexin VeFITC/propidium iodide staining by flow cytometry. It is filed as functional.

One may read the IC50 as the concentration at which inhibition is half-maximal. A low value points to higher potency.

Turning to `CN(C)c1ccc(-c2nnc(SCC(=O)c3ccccc3)o2)cc1`, the concentration for half-maximal inhibition (IC50) in assay [1] is 210 nM; in [2], 17.5 µM; in assay [3], 160 nM.
Taken in the same sequence, the figures for `COc1ccccc1-c1nnc(SCC(=O)c2ccc(Br)cc2)o1` were 600 nM, 1.35 µM and 80 nM.
Consider `CN(C)c1ccc(-c2nnc(SCC(=O)c3ccc(Br)cc3)o2)cc1`, for which the IC50 in assay [1] is 550 nM; in assay [2], 21.5 µM; in [3], 200 nM.
Consider `CCOc1ccccc1-c1nnc(SCC(=O)c2ccccc2)o1`, for which the figures for the IC50 in assay [1], in [2] and in [3] were 2670 nM, 59.8 µM and 650 nM, respectively.
Taken in the same sequence, the figures for `O=C(CSc1nnc(-c2cccc3ccccc23)o1)c1ccc(Br)cc1` were 260 nM, 17.9 µM and 160 nM.
For `O=C(CSc1nnc(-c2cccc3ccccc23)o1)c1ccccc1`, the IC50 in assay [1] was found to be 230 nM; in assay [2], 5.8 µM; in [3], 130 nM.
For the compound `COc1ccccc1-c1nnc(SCC(=O)c2ccccc2)o1`, the values for the IC50 in [1], in assay [2] and in assay [3] were 2070 nM, 0.58 µM and 20 nM, respectively.
Take `O=C(CSc1nnc(-c2ccnc(Cl)c2)o1)c1ccccc1`: the concentration for half-maximal inhibition (IC50) in assay [1] came out at 1290 nM; in [2], 302 µM; in [3], 3200 nM.
`COc1cc(OC)cc(-c2nnc(SCC(=O)c3ccc(Br)cc3)o2)c1`: the IC50 in [1] came out at 270 nM; in [2], 1.08 µM; in [3], 60 nM.
As for `O=C(CSc1nnc(-c2ccccc2F)o1)c1ccc(Br)cc1`, the IC50 in assay [1] was determined as 240 nM; in assay [2], 19.8 µM; in [3] it was 200 nM.
With `COc1ccc(-c2nnc(SCC(=O)c3ccc(Br)cc3)o2)c(O)c1`, the IC50 in assay [1] is 260 nM; in [2] it was 35.4 µM; in [3], 330 nM.
On to `Cc1ccc(-c2nnc(SCC(=O)c3ccccc3)o2)c(O)c1`, for which the IC50 was found to be 150 nM in assay [1], 0.76 µM in assay [2] and 60 nM in assay [3].
Take `O=C(CSc1nnc(-c2ccncc2)o1)c1ccc(Br)cc1`: the IC50 in [1] is 4230 nM; in assay [2], 76.3 µM; in assay [3], 780 nM.
`CN[C@@H]1C[C@H]2O[C@@](C)([C@@H]1OC)n1c3ccccc3c3c4c(c5c6ccccc6n2c5c31)C(=O)NC4` [STAUROSPORINE] registered a concentration for half-maximal inhibition (IC50) in assay [3] of 70 nM.
On to `CC(C)(C)c1ccc(-c2nnc(SCC(=O)c3ccccc3)o2)cc1`, for which the IC50 is 50 nM in [1], 18.6 µM in assay [2] and 170 nM in assay [3].
In the case of `Nc1cc(-c2nnc(SCC(=O)c3ccc(Br)cc3)o2)ccn1`, the IC50 in assay [1] was 200 nM; in assay [2] it was 1.15 µM; in [3] it was 60 nM.
Regarding `COc1ccc(-c2nnc(SCC(=O)c3ccccc3)o2)c(O)c1`, the results for the IC50 in assay [1], in [2] and in assay [3] were 280 nM, 20.5 µM and 180 nM, respectively.
As to `CCOc1ccccc1-c1nnc(SCC(=O)c2ccc(Br)cc2)o1`, the IC50 was found to be 460 nM in assay [1], 40.5 µM in assay [2] and 360 nM in assay [3].
Turning to `CC(C)(C)c1ccc(-c2nnc(SCC(=O)c3ccc(Br)cc3)o2)cc1`, the 50% inhibitory concentration (IC50) in assay [1] came out at 1950 nM; in assay [2], 9.8 µM; in [3], 100 nM.
`O=C(CSc1nnc(-c2ccccc2F)o1)c1ccccc1`: the half-inhibitory concentration (IC50) is 260 nM in assay [1], 1.22 µM in assay [2] and 50 nM in [3].
For the compound `Cc1ccc(-c2nnc(SCC(=O)c3ccc(Br)cc3)o2)c(O)c1`, the IC50 in assay [1] amounted to 2070 nM; in assay [2], 2.67 µM; in assay [3], 50 nM.
Consider `Nc1cc(-c2nnc(SCC(=O)c3ccccc3)o2)ccn1`, for which the Activity in [4] was 28.92%; in [5], 16.77%; in [6] it was “Dose-dependent effect”; in [7] it was 6%; in assay [9], 9.47%; in [11], 17.47%. Besides, the Activity came to 8% in assay [12]; 43.51% in assay [13]; 9% in assay [14]; 15.26% in [17]; 6% in assay [18]; 16.65% in [19]. For the same compound, in [20], the Activity came to 12.23%. The viability at 0.02 µM in assay [8] was found to be 49.8%. Further, the viability at 0.005 µM in assay [10] was determined as 65.8%. Moreover, the figures for the half-inhibitory concentration (IC50) in assay [1], in assay [2] and in assay [3] were 140 nM, 0.02 µM and 10 nM, respectively. Also, in assay [15], the viability at 0.04 µM stood at 33.8%. In assay [16], the viability at 0.01 µM stood at 61.3%.
As for `O=C(CSc1nnc(-c2ccncc2)o1)c1ccccc1`, the figures for the half-maximal inhibitory concentration (IC50) in assay [1], in assay [2] and in assay [3] were 370 nM, 98.7 µM and 1000 nM, respectively.
As to `COc1cc(OC)cc(-c2nnc(SCC(=O)c3ccccc3)o2)c1`, the IC50 in assay [1] amounted to 170 nM; in assay [2] it was 0.65 µM; in assay [3], 40 nM.
Regarding `O=C(CSc1nnc(-c2ccnc(Cl)c2)o1)c1ccc(Br)cc1`, the values for the 50% inhibitory concentration (IC50) in assay [1], in assay [2] and in assay [3] were 270 nM, 0.97 µM and 50 nM, respectively.

(Values after ChEMBL document CHEMBL2034882, “Synthesis, biological evaluation and molecular docking studies of novel 2-(1,3,4-oxadiazol-2-ylthio)-1-phenylethanone derivatives” (Bioorg Med Chem, 2012).)
